Experimental findings from patent publication US11319326B2, “Tricyclic fused derivatives of 1-(cyclo)alkyl pyrtdin-2-one useful for the treatment of cancer” (JUBILANT BIOSYS LIMITED, priority 2015, dated 2022) are described below.

The subject of this assay is MV4-11 cells. The assay can be described thus: Anticancer activity: Alamar Blue 3-day proliferation assay. In kind it is cell-based. To be noted: AML cell line MV4-11, 72 h, read-out: MV4-11 EC50_μM. As to the method: Anticancer Activity: Alamar Blue Assay
The impact of the compounds on cancer cell proliferation was determined using the AML cell line MV4-11 (ATCC) in a 3-day proliferation assay. MV4-11 cells were maintained in RPMI supplemented with 10% FBS at 37° C., 5% CO2. For compound testing, MV4-11 cells were plated in a 96-well black bottom plate at a density of 15,000 cells/well in 100 μL culture media and incubated at 37° C. overnight. Compound dilution series were prepared in DMSO via a 3-fold serial dilution from 100 μM to 0.005 μM. The DMSO dilution series were then diluted with media, with the final compound concentrations added to the wells ranging from 10 μM to 0.0005 μM. […] The fluorescent readings from the Alamar Blue assay were normalized to the DMSO treated cells and analyzed using the GraphPad Prism software with sigmoidal curve fitting to obtain EC50.
On the technique in general: Alamar Blue is a resazurin reagent that responds to reducing activity.

As for `CCNC(=O)CC1N=C(c2c(F)cccc2F)c2cc(OC)ccc2-c2cn(C)c(=O)cc21` (racemic) [Compound 38, ±2-(7-(2,6-difluorophenyl)-9-methoxy-2-methyl-3-oxo-3,5-dihydro-2H-benzo[c]pyrido[3,4-e]azepin-5-yl)-N-ethylacetamide], the EC50 came to 13 nM.
